Where two headings read alike, the source gives them in different places.
What was measured:
Assay type in all cases: cell-based
K. pneumoniae M150 = experiment: MIC by agar dilution (CLSI) against highly resistant ESBL strain; settings: Klebsiella pneumoniae, M150, K. pneumoniae M150, read-out: MIC
Procedure: (§1) The results on activity of cefepime and other cephalosporin antibacterial agents in combination with tazobactam against highly resistant ESBL strains are given Table 1. In a typical study, overnight grown bacterial cultures were diluted appropriately and inoculated on the agar media containing doubling dilutions of the antibiotic. Observation for growth or no growth was performed after 16-20 h of incubation at 35±2° C. in ambient air. The overall procedure was performed as per Clinical and Laboratory Standards Institute (CLSI) recommendations. This experimental was followed for Examples 2-4 and 6 below (Table 2-4 and 7).

E. coli 7MP [1] = experiment: as above; settings: E. coli 7MP
Procedure: as §1

E. coli M50 [2] = experiment: as above
Procedure: as §1

E. cloacae M-20 = experiment: as above; settings: E. cloacae M-20
Procedure: as §1

E. coli B-89 [3] = experiment: as above; settings: E. coli B-89
Procedure: as §1

E. coli M-138 = experiment: Quantitative drug diffusion assay (disc, zone of inhibition, CLSI); parameters: key to Interpretation of zone as per CLSI recommendations: R: Resistant; I: Intermediate; S: Sensitive (Interpretation as per CLSI recommendations, 2010)
Description: (§2) Activity of cefepime in combination with tazobactam and various penicillins in combination with respective ESBL inhibitors was also investigated against highly resistant ESBL strains in quantitative drug diffusion assay performed as per CLSI recommendations (Clinical and Laboratory Standards Institute (CLSI), performance Standards for Antimicrobial Susceptibility Testing, 20th Informational Supplement, M 100-S20, Volume 30, No. 1, 2010).
(§3) In a typical study, overnight grown bacterial cultures after appropriate dilution were seed inoculated in the molten, cooled agar media and plates poured. Antibiotics containing 6 mm diameter discs were place on the top of the agar surface. Zone of inhibition based observation was performed after 16-18 h of incubation at 35±2° C. in ambient air. The overall procedure was performed as per CLSI recommendations (Table 5 and 6). These assays are routinely used in determining possibility of treating a particular infection using antibiotic and/or their combinations. For example, in case of treating an infection caused by E. coli (M138) using Augmentin® [commercially available combination: Amoxicillin (500 mg)+Clavulanic acid (125 mg)], the zone inhibition values need to be in the sensitive (S) range.

E. coli 7MP [4] = experiment: as above; parameters: key to Interpretation of zone as per CLSI recommendations: R: Resistant; I: Intermediate; S: Sensitive (Interpretation as per CLSI recommendations, 2010)
Description: as §2, §3

E. coli M50 [5] = experiment: as above; parameters: key to Interpretation of zone as per CLSI recommendations: R: Resistant; I: Intermediate; S: Sensitive (Interpretation as per CLSI recommendations, 2010)
Description: as §2, §3

E. coli B-123 = experiment: as above; parameters: key to Interpretation of zone as per CLSI recommendations: R: Resistant; I: Intermediate; S: Sensitive (Interpretation as per CLSI recommendations, 2010)
Description: as §2, §3

E. coli S-112 = experiment: as above; parameters: key to Interpretation of zone as per CLSI recommendations: R: Resistant; I: Intermediate; S: Sensitive (Interpretation as per CLSI recommendations, 2010)
Description: as §2, §3

E. coli B-89 [6] = experiment: as above; parameters: key to Interpretation of zone as per CLSI recommendations: R: Resistant; I: Intermediate; S: Sensitive (Interpretation as per CLSI recommendations, 2010)
Description: as §2, §3

[7] = Tazobactam 0 mcg (antibiotic alone)
[8] = Escherichia coli, 7MP, 20 h, Tazobactam 0 mcg (antibiotic alone), read-out: MIC
[9] = Escherichia coli, 20 h, Tazobactam 0 mcg (antibiotic alone), read-out: MIC
[10] = Enterobacter cloacae, M20, 20 h, Tazobactam 0 mcg (antibiotic alone), read-out: MIC
[11] = Escherichia coli, B89, 20 h, Tazobactam 0 mcg (antibiotic alone), read-out: MIC
[12] = ESBL inhibitor 0 mcg (antibiotic alone)
[13] = Table 5, with Clavulanic acid 10 mcg
[14] = Table 6, with Clavulanic acid 10 mcg

Structure (SMILES): CC1(C)S[C@@H]2[C@H](NC(=O)[C@H](C(=O)O)c3ccsc3)C(=O)N2[C@H]1C(=O)O [Ticarcillin]
- MIC (K. pneumoniae M150; [7]): > 128 µg/mL
- MIC (K. pneumoniae M150; with Tazobactam 4 mcg): > 64 µg/mL
- MIC (K. pneumoniae M150; with Tazobactam 8 mcg): > 64 µg/mL
- MIC (E. coli 7MP [1]; with Tazobactam 4 mcg): >64 µg/mL
- MIC (E. coli 7MP [1]; with Tazobactam 8 mcg): >64 µg/mL
- MIC (E. coli 7MP [1]; [8]): > 128 µg/mL
- MIC (E. coli M50 [2]; [9]): > 128 µg/mL
- MIC (E. coli M50 [2]; with Tazobactam 4 mcg): >64 µg/mL
- MIC (E. coli M50 [2]; with Tazobactam 8 mcg): >64 µg/mL
- MIC (E. cloacae M-20; with Tazobactam 4 mcg): >64 µg/mL
- MIC (E. cloacae M-20; with Tazobactam 8 mcg): >64 µg/mL
- MIC (E. cloacae M-20; [10]): > 128 µg/mL
- MIC (E. coli B-89 [3]; with Tazobactam 4 mcg): >64 µg/mL
- MIC (E. coli B-89 [3]; with Tazobactam 8 mcg): >64 µg/mL
- MIC (E. coli B-89 [3]; [11]): > 128 µg/mL
- Zone of Inhibition (E. coli M-138; [12]): Nil
- Interpretation of zone as per CLSI recommendations (E. coli M-138; Table 5, ESBL inhibitor 0 mcg): (R)
- Interpretation of zone as per CLSI recommendations (E. coli M-138; [13]): (R)
- Interpretation of zone as per CLSI recommendations (E. coli M-138; Table 6, ESBL inhibitor 0 mcg): (R)
- Interpretation of zone as per CLSI recommendations (E. coli M-138; [14]): (R)
- Zone of Inhibition (E. coli M-138; with Clavulanic acid 10 mcg): 10 mm
- Zone of Inhibition (E. coli 7MP [4]; [12]): Nil
- Interpretation of zone as per CLSI recommendations (E. coli 7MP [4]; Table 5, ESBL inhibitor 0 mcg): (R)
- Interpretation of zone as per CLSI recommendations (E. coli 7MP [4]; [13]): (R)
- Interpretation of zone as per CLSI recommendations (E. coli 7MP [4]; Table 6, ESBL inhibitor 0 mcg): (R)
- Interpretation of zone as per CLSI recommendations (E. coli 7MP [4]; [14]): (R)
- Zone of Inhibition (E. coli 7MP [4]; with Clavulanic acid 10 mcg): Nil
- Zone of Inhibition (E. coli M50 [5]; [12]): 9 mm
- Interpretation of zone as per CLSI recommendations (E. coli M50 [5]; Table 5, ESBL inhibitor 0 mcg): (R)
- Interpretation of zone as per CLSI recommendations (E. coli M50 [5]; [13]): (R)
- Interpretation of zone as per CLSI recommendations (E. coli M50 [5]; Table 6, ESBL inhibitor 0 mcg): (R)
- Interpretation of zone as per CLSI recommendations (E. coli M50 [5]; [14]): (R)
- Zone of Inhibition (E. coli M50 [5]; with Clavulanic acid 10 mcg): 11.5 mm
- Zone of Inhibition (E. coli B-123; [12]): Nil
- Interpretation of zone as per CLSI recommendations (E. coli B-123; Table 5, ESBL inhibitor 0 mcg): (R)
- Interpretation of zone as per CLSI recommendations (E. coli B-123; [13]): (R)
- Interpretation of zone as per CLSI recommendations (E. coli B-123; Table 6, ESBL inhibitor 0 mcg): (R)
- Interpretation of zone as per CLSI recommendations (E. coli B-123; [14]): (R)
- Zone of Inhibition (E. coli B-123; with Clavulanic acid 10 mcg): 13.5 mm
- Zone of Inhibition (E. coli S-112; [12]): Nil
- Interpretation of zone as per CLSI recommendations (E. coli S-112; Table 5, ESBL inhibitor 0 mcg): (R)
- Interpretation of zone as per CLSI recommendations (E. coli S-112; [13]): (R)
- Interpretation of zone as per CLSI recommendations (E. coli S-112; Table 6, ESBL inhibitor 0 mcg): (R)
- Interpretation of zone as per CLSI recommendations (E. coli S-112; [14]): (R)
- Zone of Inhibition (E. coli S-112; with Clavulanic acid 10 mcg): 10 mm
- Zone of Inhibition (E. coli B-89 [6]; [12]): Nil
- Interpretation of zone as per CLSI recommendations (E. coli B-89 [6]; Table 5, ESBL inhibitor 0 mcg): (R)
- Interpretation of zone as per CLSI recommendations (E. coli B-89 [6]; [13]): (R)
- Interpretation of zone as per CLSI recommendations (E. coli B-89 [6]; Table 6, ESBL inhibitor 0 mcg): (R)
- Interpretation of zone as per CLSI recommendations (E. coli B-89 [6]; [14]): (R)
- Zone of Inhibition (E. coli B-89 [6]; with Clavulanic acid 10 mcg): 10 mm

Structure (SMILES): CC1(C)S[C@@H]2[C@H](NC(=O)[C@H](N)c3ccccc3)C(=O)N2[C@H]1C(=O)O [Ampicillin]
- MIC (K. pneumoniae M150; [7]): > 128 µg/mL
- MIC (K. pneumoniae M150; with Tazobactam 4 mcg): > 64 µg/mL
- MIC (K. pneumoniae M150; with Tazobactam 8 mcg): > 64 µg/mL
- MIC (E. coli 7MP [1]; with Tazobactam 4 mcg): >64 µg/mL
- MIC (E. coli 7MP [1]; with Tazobactam 8 mcg): >64 µg/mL
- MIC (E. coli 7MP [1]; [8]): > 128 µg/mL
- MIC (E. coli M50 [2]; [9]): > 128 µg/mL
- MIC (E. coli M50 [2]; with Tazobactam 4 mcg): >64 µg/mL
- MIC (E. coli M50 [2]; with Tazobactam 8 mcg): >64 µg/mL
- MIC (E. cloacae M-20; with Tazobactam 4 mcg): >64 µg/mL
- MIC (E. cloacae M-20; with Tazobactam 8 mcg): >64 µg/mL
- MIC (E. cloacae M-20; [10]): > 128 µg/mL
- MIC (E. coli B-89 [3]; with Tazobactam 4 mcg): >64 µg/mL
- MIC (E. coli B-89 [3]; with Tazobactam 8 mcg): >64 µg/mL
- MIC (E. coli B-89 [3]; [11]): > 128 µg/mL
- Zone of Inhibition (E. coli M-138; [12]): Nil
- Interpretation of zone as per CLSI recommendations (E. coli M-138; Table 5, ESBL inhibitor 0 mcg): (R)
- Interpretation of zone as per CLSI recommendations (E. coli M-138; Table 5, with Sulbactam 10 mcg): (R)
- Interpretation of zone as per CLSI recommendations (E. coli M-138; Table 6, ESBL inhibitor 0 mcg): (R)
- Interpretation of zone as per CLSI recommendations (E. coli M-138; Table 6, with Sulbactam 10 mcg): (R)
- Zone of Inhibition (E. coli M-138; with Sulbactam 10 mcg): Nil
- Zone of Inhibition (E. coli 7MP [4]; [12]): Nil
- Interpretation of zone as per CLSI recommendations (E. coli 7MP [4]; Table 5, ESBL inhibitor 0 mcg): (R)
- Interpretation of zone as per CLSI recommendations (E. coli 7MP [4]; Table 5, with Sulbactam 10 mcg): (R)
- Interpretation of zone as per CLSI recommendations (E. coli 7MP [4]; Table 6, ESBL inhibitor 0 mcg): (R)
- Interpretation of zone as per CLSI recommendations (E. coli 7MP [4]; Table 6, with Sulbactam 10 mcg): (R)
- Zone of Inhibition (E. coli 7MP [4]; with Sulbactam 10 mcg): Nil
- Zone of Inhibition (E. coli M50 [5]; [12]): Nil
- Interpretation of zone as per CLSI recommendations (E. coli M50 [5]; Table 5, ESBL inhibitor 0 mcg): (R)
- Interpretation of zone as per CLSI recommendations (E. coli M50 [5]; Table 5, with Sulbactam 10 mcg): (R)
- Interpretation of zone as per CLSI recommendations (E. coli M50 [5]; Table 6, ESBL inhibitor 0 mcg): (R)
- Interpretation of zone as per CLSI recommendations (E. coli M50 [5]; Table 6, with Sulbactam 10 mcg): (R)
- Zone of Inhibition (E. coli M50 [5]; with Sulbactam 10 mcg): Nil
- Zone of Inhibition (E. coli B-123; [12]): Nil
- Interpretation of zone as per CLSI recommendations (E. coli B-123; Table 5, ESBL inhibitor 0 mcg): (R)
- Interpretation of zone as per CLSI recommendations (E. coli B-123; Table 5, with Sulbactam 10 mcg): (R)
- Interpretation of zone as per CLSI recommendations (E. coli B-123; Table 6, ESBL inhibitor 0 mcg): (R)
- Interpretation of zone as per CLSI recommendations (E. coli B-123; Table 6, with Sulbactam 10 mcg): (R)
- Zone of Inhibition (E. coli B-123; with Sulbactam 10 mcg): Nil
- Zone of Inhibition (E. coli S-112; [12]): Nil
- Interpretation of zone as per CLSI recommendations (E. coli S-112; Table 5, ESBL inhibitor 0 mcg): (R)
- Interpretation of zone as per CLSI recommendations (E. coli S-112; Table 5, with Sulbactam 10 mcg): (R)
- Interpretation of zone as per CLSI recommendations (E. coli S-112; Table 6, ESBL inhibitor 0 mcg): (R)
- Interpretation of zone as per CLSI recommendations (E. coli S-112; Table 6, with Sulbactam 10 mcg): (R)
- Zone of Inhibition (E. coli S-112; with Sulbactam 10 mcg): Nil
- Zone of Inhibition (E. coli B-89 [6]; [12]): Nil
- Interpretation of zone as per CLSI recommendations (E. coli B-89 [6]; Table 5, ESBL inhibitor 0 mcg): (R)
- Interpretation of zone as per CLSI recommendations (E. coli B-89 [6]; Table 5, with Sulbactam 10 mcg): (R)
- Interpretation of zone as per CLSI recommendations (E. coli B-89 [6]; Table 6, ESBL inhibitor 0 mcg): (R)
- Interpretation of zone as per CLSI recommendations (E. coli B-89 [6]; Table 6, with Sulbactam 10 mcg): (R)
- Zone of Inhibition (E. coli B-89 [6]; with Sulbactam 10 mcg): Nil

Source: US20160175318A1, “COMPOSITIONS COMPRISING ANTIBACTERIAL AGENT AND TAZOBACTAM” (WOCKHARDT LIMITED, priority 2013, published 2016)
